The results in this text go back to US20230413824A1, “AGROCHEMICAL COMPOSITION COMPRISING 3-SUBSTITUTED PHENYLAMIDINE COMPOUNDS AND USE THEREOF” (PI INDUSTRIES LIMITED, priority 2020, published 2023).

Read-outs that look alike come from different tables or passages of the source.

Holding throughout (format): in vivo
One test concerns Pyricularia oryzae. As to the kind of experiment: whole plant or invertebrate. To be noted: for pest or weed control at 0.05 ppm / pest or weed control at 0.1 ppm: Pyricularia oryzae, read-out: Observed Efficacy; for Observed Efficacy: single compound, preventive spray, rice.
Another test relates to Alternaria solani. The test is described as follows: Alternaria solani test in tomato (preventive, glasshouse). The settings on record: for pest or weed control at 0.05 ppm / pest or weed control at 0.1 ppm: Alternaria solani.
A further test deals with Erysiphe cichoracearum. The test is described as follows: Erysiphe cichoracearum test in cucumber (preventive, glasshouse). The settings on record: single compound; for pest or weed control at 0.05 ppm / pest or weed control at 0.1 ppm: Golovinomyces cichoracearum, read-out: Observed Efficacy (%).
The subject of the next test is Phakopsora pachyrhizi. As to the kind of experiment: Phakopsora pachyrhizi test in soybean (preventive, glasshouse). The settings on record: single compound; for pest or weed control at 0.05 ppm / pest or weed control at 0.1 ppm: Phakopsora pachyrhizi, read-out: Observed Efficacy (%).
For a further test, the system named is Botrytis cinerea. The test is described as follows: Botrytis cinerea test in tomato (preventive, glasshouse). The settings on record: single compound.
Where [1] appears, read: single compound, 0.05 ppm, preventive spray, read-out: Observed Efficacy (%).
Where [2] appears, read: single compound, 0.1 ppm, preventive spray, read-out: Observed Efficacy (%).
Setting [3] is: single compound, Conc. 0.05 ppm, preventive spray, read-out: Observed Efficacy.
The mark [4] stands for this setting: single compound, Conc. 0.1 ppm, preventive spray, read-out: Observed Efficacy.
Where [5] appears, read: Table B3, single compound, Conc. 0.05 ppm, preventive.
Setting [6] is: Table B3, single compound, Conc. 0.1 ppm, preventive.
Where [7] appears, read: Table B4, single compound, Conc. 0.05 ppm, preventive.
[8] abbreviates: single compound, 0.05 ppm, preventive.
Where [9] appears, read: single compound, 0.1 ppm, preventive.
[10] abbreviates: 0.05 ppm, preventive spray on cucumber.
Where [11] appears, read: 0.05 ppm, preventive spray on soybean.
Setting [12] is: 0.1 ppm, preventive spray on soybean.
Setting [13] is: Conc. 0.05 ppm, soybean, preventive, Table D4.
The mark [14] stands for this setting: Conc. 0.05 ppm, soybean, preventive, Table D5.
[15] abbreviates: Conc. 0.1 ppm, soybean, preventive, Table D4.
[16] abbreviates: Conc. 0.1 ppm, soybean, preventive, Table D5.
Setting [17] is: Botrytis cinerea, Conc. 0.05 ppm, preventive spray on tomato, % control vs untreated, read-out: Observed Efficacy (%).
Setting [18] is: Botrytis cinerea, Conc. 0.1 ppm, preventive spray on tomato, % control vs untreated, read-out: Observed Efficacy (%).
The mark [19] stands for this setting: 0.1 ppm, preventive spray on cucumber.
Where [20] appears, read: Table F4, Conc. 0.05 ppm, Botrytis cinerea in tomato, preventive.
[21] abbreviates: Table F4, Conc. 0.1 ppm, Botrytis cinerea in tomato, preventive, read-out: Observed Efficacy (%).
Where [22] appears, read: Table B4, single compound, Conc. 0.1 ppm, preventive.
Where [23] appears, read: single compound, 0.05 ppm, preventive spray.
[24] abbreviates: single compound, 0.1 ppm, preventive spray.
Setting [25] is: single compound, Conc. 0.1 ppm, preventive spray.
Setting [26] is: Table F4, Conc. 0.1 ppm, Botrytis cinerea in tomato, preventive.
Where [27] appears, read: Conc. 0.05 ppm, preventive spray on tomato, % control vs untreated.
Where [28] appears, read: Conc. 0.1 ppm, preventive spray on tomato, % control vs untreated.
[29] abbreviates: Table F5, Conc. 0.05 ppm, Botrytis cinerea in tomato, preventive.
[30] abbreviates: Table F5, Conc. 0.1 ppm, Botrytis cinerea in tomato, preventive.

In the case of `CC(C)(C)C(O)(CCc1ccc(Cl)cc1)Cn1cncn1` (stereo not drawn) [Tebuconazole, tebuconazole], the pest or weed control at 0.05 ppm was found to be 17% in the test with Pyricularia oryzae; 34% with Alternaria solani (setting [1]); 34% in the test on Alternaria solani (setting [3]); 29% with Erysiphe cichoracearum (setting [10]); 38% in the test with Phakopsora pachyrhizi (setting [11]); 35% with Botrytis cinerea (setting [17]). The pest or weed control at 0.1 ppm in the test on Pyricularia oryzae worked out at 36%; in the test on Alternaria solani (setting [2]) it was 54%; in the test on Alternaria solani (setting [4]), 54%; with Phakopsora pachyrhizi (setting [12]), 44%; in the test with Botrytis cinerea (setting [18]), 38%. Further, the “Observed Efficacy (%)” value amounted to 34% in the test on Alternaria solani (setting [5]); 54% in the test on Alternaria solani (setting [6]); 34% in the test on Alternaria solani (setting [7]); 34% in the test on Alternaria solani (setting [8]); 54% in the test with Alternaria solani (setting [9]); 38% in the test with Phakopsora pachyrhizi (setting [13]). Besides, the “Observed Efficacy (%)” value was determined as 38% in the test on Phakopsora pachyrhizi (setting [14]), 44% in the test with Phakopsora pachyrhizi (setting [15]) and 44% in the test with Phakopsora pachyrhizi (setting [16]).
On to `O=C(Nc1ccccc1-c1ccc(Cl)cc1)c1cccnc1Cl` [Boscalid, boscalid], for which the pest or weed control at 0.05 ppm worked out at 24% in the test on Pyricularia oryzae; 13% with Alternaria solani (setting [1]); 13% with Alternaria solani (setting [3]); 24% in the test on Erysiphe cichoracearum (0.05 ppm, cucumber, preventive); 38% with Botrytis cinerea (setting [17]). Also, the pest or weed control at 0.1 ppm is 37% with Pyricularia oryzae; 26% in the test on Alternaria solani (setting [2]); 26% with Alternaria solani (setting [4]); 32% in the test on Erysiphe cichoracearum (0.1 ppm, cucumber, preventive); 32% in the test on Phakopsora pachyrhizi (setting [12]); 52% with Botrytis cinerea (setting [21]). Besides, the “Observed Efficacy (%)” value with Alternaria solani (setting [5]) is 13%; in the test with Alternaria solani (setting [6]), 26%; with Alternaria solani (setting [8]), 13%; in the test on Alternaria solani (setting [9]), 26%; in the test with Erysiphe cichoracearum (setting [10]), 24%; in the test with Erysiphe cichoracearum (setting [19]) it was 32%. The “Observed Efficacy (%)” value in the test on Phakopsora pachyrhizi (setting [15]) is on record as 32%; in the test with Botrytis cinerea (setting [20]), 38%.
In the case of `COC(=O)N(OC)c1ccccc1COc1ccn(-c2ccc(Cl)cc2)n1` [Pyraclostrobin, pyraclostrobin], the pest or weed control at 0.05 ppm in the test with Pyricularia oryzae stood at 16%; in the test on Alternaria solani (setting [1]) it was 21%; in the test on Alternaria solani (setting [3]) it was 21%; with Erysiphe cichoracearum (setting [10]), 21%; in the test with Botrytis cinerea (Table F4, Conc. 0.05 ppm, Botrytis cinerea in tomato, preventive, read-out: Observed Efficacy (%)), 38%. Further, the pest or weed control at 0.1 ppm in the test on Pyricularia oryzae is 24%; in the test on Alternaria solani (setting [2]) it was 28%; in the test on Alternaria solani (setting [4]) it was 28%; in the test on Erysiphe cichoracearum (0.1 ppm, cucumber, preventive), 24%; in the test on Botrytis cinerea (setting [21]) it was 43%. Besides, the “Observed Efficacy (%)” value was found to be 28% in the test on Alternaria solani (setting [6]) and 24% with Erysiphe cichoracearum (setting [19]).
For the compound mancozeb, the “Observed Efficacy (%)” value with Alternaria solani (setting [5]) was 14%; with Alternaria solani (setting [6]), 16%; in the test with Alternaria solani (setting [7]) it was 14%; with Alternaria solani (setting [22]) it was 16%; in the test on Alternaria solani (setting [8]), 14%; in the test on Alternaria solani (setting [23]), 14%. The “Observed Efficacy (%)” value in the test with Alternaria solani (setting [9]) came to 16%; in the test with Alternaria solani (setting [24]), 16%; in the test on Erysiphe cichoracearum (0.05 ppm, cucumber, preventive), 24%; in the test with Erysiphe cichoracearum (setting [10]), 24%; with Erysiphe cichoracearum (0.1 ppm, cucumber, preventive), 29%; with Erysiphe cichoracearum (setting [19]), 29%. Besides, the “Observed Efficacy (%)” value is 12% in the test on Phakopsora pachyrhizi (setting [11]); 15% with Phakopsora pachyrhizi (setting [12]); 12% with Phakopsora pachyrhizi (setting [13]); 12% with Phakopsora pachyrhizi (setting [14]); 15% with Phakopsora pachyrhizi (setting [15]); 15% in the test on Phakopsora pachyrhizi (setting [16]). Moreover, the “Observed Efficacy (%)” value in the test on Botrytis cinerea (setting [20]) is recorded as 19%; in the test with Botrytis cinerea (setting [26]) it was 24%; in the test with Botrytis cinerea (setting [27]) it was 19%; with Botrytis cinerea (setting [28]), 24%. The “Observed Efficacy” value with Alternaria solani (setting [25]) is given as 16%.
Consider `OC(Cc1ccccc1Cl)(Cn1nc[nH]c1=S)C1(Cl)CC1` (stereo not drawn) [Prothioconazole, prothioconazole], for which the pest or weed control at 0.05 ppm with Pyricularia oryzae was found to be 17%; in the test with Alternaria solani (setting [1]), 20%; in the test with Alternaria solani (setting [3]), 20%; in the test with Botrytis cinerea (setting [17]), 36%. Besides, the pest or weed control at 0.1 ppm in the test with Pyricularia oryzae came out at 33%; in the test with Alternaria solani (setting [2]), 31%; in the test with Alternaria solani (setting [4]), 31%; with Botrytis cinerea (setting [18]), 44%. In addition, the “Observed Efficacy (%)” value with Alternaria solani (setting [5]) was 20%; in the test with Alternaria solani (setting [6]) it was 31%; in the test on Alternaria solani (setting [7]) it was 20%; in the test with Alternaria solani (setting [22]), 31%; in the test on Alternaria solani (setting [8]), 20%; with Alternaria solani (setting [9]), 31%. In addition, the “Observed Efficacy (%)” value in the test on Botrytis cinerea (setting [20]) is 36%; in the test on Botrytis cinerea (setting [26]) it was 44%. In addition, in the test on Botrytis cinerea (Botrytis cinerea, Conc. 0.01 ppm, preventive spray on tomato, % control vs untreated, read-out: Observed Efficacy (%)), the pest or weed control at 0.01 ppm came out at 44%.
For the compound `CC1CC(C)(C)c2c(F)ccc(NC(=O)c3cn(C)nc3C(F)F)c21` (stereo not drawn) [Fluindapyr, 3-(difluoromethyl)-N-(7-fluoro-1,1,3-trimethyl-2,3-dihydro-1H-inden-4-yl)-1-methyl-1H-pyrazole-4-carboxamide], the pest or weed control at 0.05 ppm was 11% in the test with Pyricularia oryzae; 14% with Alternaria solani (setting [1]); 29% with Erysiphe cichoracearum (0.05 ppm, cucumber, preventive); 20% in the test on Phakopsora pachyrhizi (setting [11]); 27% with Botrytis cinerea (setting [17]). Further, the pest or weed control at 0.1 ppm in the test on Alternaria solani (setting [2]) is 29%; in the test on Erysiphe cichoracearum (0.1 ppm, cucumber, preventive), 38%; in the test on Phakopsora pachyrhizi (setting [12]), 30%; in the test with Botrytis cinerea (setting [18]), 41%. For the same compound, the “Observed Efficacy (%)” value in the test on Alternaria solani (setting [5]) is reported as 14%; in the test on Alternaria solani (setting [6]), 29%; with Alternaria solani (setting [7]), 14%; with Alternaria solani (setting [22]) it was 29%; in the test on Alternaria solani (setting [8]), 14%; in the test on Alternaria solani (setting [9]), 29%. Moreover, the “Observed Efficacy (%)” value was determined as 29% with Erysiphe cichoracearum (setting [10]); 38% with Erysiphe cichoracearum (setting [19]); 20% in the test on Phakopsora pachyrhizi (setting [13]); 30% in the test on Phakopsora pachyrhizi (setting [15]); 30% in the test with Phakopsora pachyrhizi (setting [16]); 27% in the test with Botrytis cinerea (setting [20]). Also, the “Observed Efficacy (%)” value with Botrytis cinerea (setting [26]) turned out to be 41%; in the test on Botrytis cinerea (setting [29]), 27%; in the test on Botrytis cinerea (setting [30]), 41%.
As to `CNC(=O)/C(=N/OC)c1ccccc1Oc1ccccc1` [Metaminostorbin], the “Observed Efficacy (%)” value in the test on Phakopsora pachyrhizi (setting [11]) was 45%; in the test with Phakopsora pachyrhizi (setting [12]), 56%; in the test with Botrytis cinerea (setting [27]), 28%; in the test with Botrytis cinerea (setting [28]), 40%.
Regarding `CC(O)(Cn1cncn1)c1ccc(Oc2ccc(Cl)cc2)cc1C(F)(F)F` (stereo not drawn) [Mefentrifluconazole, mefentrifluconazole], the “Observed Efficacy” value is recorded as 21% with Pyricularia oryzae (Conc. 0.05 ppm); 24% in the test on Pyricularia oryzae (Conc. 0.1 ppm); 12% in the test with Alternaria solani (single compound, Conc. 0.05 ppm, preventive spray); 26% with Alternaria solani (setting [25]). Besides, the “Observed Efficacy (%)” value in the test on Alternaria solani (setting [5]) is on record as 12%; with Alternaria solani (setting [6]), 26%; in the test with Alternaria solani (setting [7]), 12%; in the test with Alternaria solani (setting [22]), 26%; in the test with Alternaria solani (setting [8]), 12%; in the test with Alternaria solani (setting [23]) it was 12%. Further, the “Observed Efficacy (%)” value in the test with Alternaria solani (setting [9]) stood at 26%; in the test with Alternaria solani (setting [24]) it was 26%; with Erysiphe cichoracearum (setting [10]), 21%; in the test on Erysiphe cichoracearum (0.1 ppm, cucumber, preventive), 24%; in the test with Erysiphe cichoracearum (setting [19]), 24%; with Botrytis cinerea (setting [20]), 31%. The “Observed Efficacy (%)” value worked out at 38% in the test with Botrytis cinerea (setting [26]), 31% in the test on Botrytis cinerea (setting [27]) and 38% with Botrytis cinerea (setting [28]).
Take `N#Cc1sc2c(=O)c3ccccc3c(=O)c=2sc1C#N` [Dithionon]: the “Observed Efficacy (%)” value is listed as 21% in the test on Alternaria solani (setting [5]); 26% with Alternaria solani (setting [6]); 38% with Botrytis cinerea (setting [20]); 45% in the test on Botrytis cinerea (setting [26]); 38% with Botrytis cinerea (setting [29]); 45% in the test with Botrytis cinerea (setting [30]).
